Columns and labels:
Type in all cases: biochemical
HDAC9 enzyme = target: T1, HDAC9 enzyme (Homo sapiens, UniProt Q9UKV0); experiment: HDAC9 Enzyme Inhibitory Assay (HDAC-Glo class IIa); conditions: 1 μM test compound; wells without enzyme = 100% inhibition; read-out: HDAC9 inhibitory rate (%) (1 μM)
T1 construct: transducing full length HDAC9 gene into Sf-9 insect cells; made in house; host or cells: Sf-9 insect cells
How it was run: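 Luminescent HDAC-Glo class IIa readout after a 20 min room-temperature reaction; relative inhibition referenced to enzyme-free wells as 100%. Test compound first preincubated 60 min with Sf-9-expressed, Ni-NTA-purified full-length HDAC9 in pH 7.5 Tris buffer containing 135 mM NaCl, 0.6 mM glutathione and 0.01% Tween-20.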

HDAC6 enzyme = target: T2, HDAC6 enzyme (Homo sapiens, UniProt Q9UBN7); experiment: HDAC1/6 Enzyme Inhibitory Assay (HDAC-Glo I/II Assay kit), HDAC6; conditions: 1 μM test compound; wells without enzyme = 100% inhibition; read-out: HDAC6 inhibitory rate (%) (1 μM)
T2 construct: transducing full length HDAC1 and HDAC6 genes into Sf-9 insect cells; GST; purchased SignalChem; host or cells: Sf-9 insect cells
T2 sequence (Q9UBN7 1-1215): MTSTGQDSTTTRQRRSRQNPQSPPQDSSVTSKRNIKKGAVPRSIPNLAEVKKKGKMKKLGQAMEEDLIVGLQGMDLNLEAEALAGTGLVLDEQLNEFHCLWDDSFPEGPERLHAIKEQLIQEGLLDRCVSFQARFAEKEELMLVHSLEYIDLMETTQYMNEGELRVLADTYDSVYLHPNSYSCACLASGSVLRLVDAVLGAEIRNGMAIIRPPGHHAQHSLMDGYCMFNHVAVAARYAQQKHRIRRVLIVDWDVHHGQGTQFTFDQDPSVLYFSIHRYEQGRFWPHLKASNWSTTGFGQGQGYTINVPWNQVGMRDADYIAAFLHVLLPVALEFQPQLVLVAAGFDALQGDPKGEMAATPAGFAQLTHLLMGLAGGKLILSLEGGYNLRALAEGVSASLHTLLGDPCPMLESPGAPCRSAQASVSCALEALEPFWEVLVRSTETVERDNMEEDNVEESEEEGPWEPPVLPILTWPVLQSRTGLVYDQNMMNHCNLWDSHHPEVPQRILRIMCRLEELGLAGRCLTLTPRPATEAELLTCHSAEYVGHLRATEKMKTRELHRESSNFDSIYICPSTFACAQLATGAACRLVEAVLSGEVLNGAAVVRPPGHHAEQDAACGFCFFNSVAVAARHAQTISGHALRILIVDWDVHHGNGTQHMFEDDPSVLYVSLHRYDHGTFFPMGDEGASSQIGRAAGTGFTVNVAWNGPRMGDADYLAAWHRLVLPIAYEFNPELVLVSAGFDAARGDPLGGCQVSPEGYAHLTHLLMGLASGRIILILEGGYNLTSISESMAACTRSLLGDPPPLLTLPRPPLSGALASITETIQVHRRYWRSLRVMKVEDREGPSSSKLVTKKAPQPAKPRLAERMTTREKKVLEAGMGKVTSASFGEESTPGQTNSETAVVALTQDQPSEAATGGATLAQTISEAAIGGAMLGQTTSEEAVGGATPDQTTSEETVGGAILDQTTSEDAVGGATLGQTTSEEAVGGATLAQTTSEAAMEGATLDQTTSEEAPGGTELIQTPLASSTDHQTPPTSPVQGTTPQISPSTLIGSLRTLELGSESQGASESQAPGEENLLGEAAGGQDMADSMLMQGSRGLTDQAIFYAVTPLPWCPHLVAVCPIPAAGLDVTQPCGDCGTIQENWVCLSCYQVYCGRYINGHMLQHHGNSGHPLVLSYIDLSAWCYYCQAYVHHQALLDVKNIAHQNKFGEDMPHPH
How it was run: (§1)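 Luminescence readout (HDAC-Glo I/II) after 20 min RT reaction of GST-purified full-length HDAC1 or HDAC6 (Sf-9 expressed) with substrate-developer; enzyme and compound preincubated 60 min RT; buffer 24 mM Tris-HCl pH 7.5, 0.6 mM glutathione, 0.01% Tween-20; no-enzyme wells = 100% inhibition.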

HDAC1 enzyme = target: T3, HDAC1 enzyme (Homo sapiens, UniProt Q13547); experiment: HDAC1/6 Enzyme Inhibitory Assay (HDAC-Glo I/II Assay kit), HDAC1; conditions: 1 μM test compound; wells without enzyme = 100% inhibition; read-out: HDAC1 inhibitory rate (%) (1 μM)
T3 construct: transducing full length HDAC1 and HDAC6 genes into Sf-9 insect cells; GST; purchased SignalChem; host or cells: Sf-9 insect cells
How it was run: as §1

T1 sequence (Q9UKV0 whole entry, species assumed): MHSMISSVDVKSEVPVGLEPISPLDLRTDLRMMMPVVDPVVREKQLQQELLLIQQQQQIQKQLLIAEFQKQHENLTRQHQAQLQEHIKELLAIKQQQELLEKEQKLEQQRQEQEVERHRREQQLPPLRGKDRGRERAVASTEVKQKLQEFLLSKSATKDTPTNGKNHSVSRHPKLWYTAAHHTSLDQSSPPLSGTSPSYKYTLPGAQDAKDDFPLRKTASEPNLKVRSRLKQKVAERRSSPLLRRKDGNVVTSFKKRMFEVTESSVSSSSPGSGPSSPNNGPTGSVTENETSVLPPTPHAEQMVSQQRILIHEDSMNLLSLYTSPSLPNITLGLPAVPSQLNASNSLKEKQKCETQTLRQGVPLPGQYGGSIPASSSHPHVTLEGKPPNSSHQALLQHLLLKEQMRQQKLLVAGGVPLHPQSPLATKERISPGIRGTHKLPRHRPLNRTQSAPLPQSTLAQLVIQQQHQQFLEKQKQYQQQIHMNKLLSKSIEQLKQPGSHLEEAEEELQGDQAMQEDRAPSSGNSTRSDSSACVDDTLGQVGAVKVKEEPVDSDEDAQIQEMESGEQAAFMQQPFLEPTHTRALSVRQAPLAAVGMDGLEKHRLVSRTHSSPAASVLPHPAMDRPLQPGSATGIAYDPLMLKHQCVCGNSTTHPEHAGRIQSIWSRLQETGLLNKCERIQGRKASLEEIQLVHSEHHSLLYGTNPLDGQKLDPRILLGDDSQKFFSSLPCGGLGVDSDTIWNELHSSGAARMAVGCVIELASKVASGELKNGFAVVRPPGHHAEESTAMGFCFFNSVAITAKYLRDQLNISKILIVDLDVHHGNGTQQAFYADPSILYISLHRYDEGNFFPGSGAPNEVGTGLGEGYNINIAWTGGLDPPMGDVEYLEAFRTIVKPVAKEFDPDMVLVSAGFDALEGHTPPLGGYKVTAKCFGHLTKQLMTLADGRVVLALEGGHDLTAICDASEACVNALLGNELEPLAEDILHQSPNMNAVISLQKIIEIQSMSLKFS
T3 sequence (Q13547 whole entry): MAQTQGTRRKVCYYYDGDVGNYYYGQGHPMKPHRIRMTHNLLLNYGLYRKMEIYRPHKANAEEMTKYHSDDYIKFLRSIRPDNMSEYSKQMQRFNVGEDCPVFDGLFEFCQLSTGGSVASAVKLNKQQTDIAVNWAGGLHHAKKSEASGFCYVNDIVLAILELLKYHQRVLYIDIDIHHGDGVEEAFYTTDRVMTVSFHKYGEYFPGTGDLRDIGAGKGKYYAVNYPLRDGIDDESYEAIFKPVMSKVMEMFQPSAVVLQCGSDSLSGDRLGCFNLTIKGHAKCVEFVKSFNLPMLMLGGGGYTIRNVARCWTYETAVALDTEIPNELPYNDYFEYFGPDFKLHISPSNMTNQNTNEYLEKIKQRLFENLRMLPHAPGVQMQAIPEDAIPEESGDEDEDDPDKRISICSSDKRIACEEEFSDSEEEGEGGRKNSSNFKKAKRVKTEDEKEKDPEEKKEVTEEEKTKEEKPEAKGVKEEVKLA

O=C(N[C@H]1CCCC[C@H]1N1Cc2ccc(-c3noc(C(F)(F)F)n3)cc2C1=O)C1CC1 [Example 86, N-((1S,2R)-2-(1-oxo-6-(5-(trifluoromethyl)-1,2,4-oxadiazol-3-yl)-1,3-dihydro-2H-isoindol-2-yl)cyclohexyl) cyclopropanecarboxamide]
inhibition at 1 µM (HDAC9 enzyme): 92% | inhibition at 1 µM (HDAC6 enzyme): 98% | inhibition at 1 µM (HDAC1 enzyme): 80%

CC1(C(=O)N[C@@H]2CCC(F)(F)C[C@H]2N2Cc3ccc(-c4noc(C(F)(F)F)n4)cc3C2=O)COC1 [Example 87, N-((1R,2R)-4,4-difluoro-2-(1-oxo-6-(5-(trifluoromethyl)-1,2,4-oxadiazol-3-yl)-1,3-dihydro-2H-isoindol-2-yl)cyclohexyl)-3-methyloxetane-3-carboxamide]
inhibition at 1 µM (HDAC9 enzyme): 45% | inhibition at 1 µM (HDAC6 enzyme): 99% | inhibition at 1 µM (HDAC1 enzyme): 1%

CC(C)(C)OC(=O)N1CC[C@@H](N2Cc3ncc(-c4noc(C(F)(F)F)n4)cc3C2=O)[C@H](c2ccccc2)C1 [Example 88, tert-butyl (3R,4R)-4-(5-oxo-3-(5-(trifluoromethyl)-1,2,4-oxadiazol-3-yl)-5,7-dihydro-6H-pyrrolo[3,4-b]pyridin-6-yl)-3-phenylpiperidine-1-carboxylate]
inhibition at 1 µM (HDAC9 enzyme): 97% | inhibition at 1 µM (HDAC6 enzyme): 98% | inhibition at 1 µM (HDAC1 enzyme): 79%

O=C1c2cc(-c3noc(C(F)(F)F)n3)ccc2CN1[C@@H]1CCCC[C@H]1NS(=O)(=O)C1CC1 [Example 89, N-((1R,2R)-2-(1-oxo-6-(5-(trifluoromethyl)-1,2,4-oxadiazol-3-yl)-1,3-dihydro-2H-isoindol-2-yl)cyclohexyl) cyclopropanesulfonamide]
inhibition at 1 µM (HDAC9 enzyme): 85% | inhibition at 1 µM (HDAC6 enzyme): 98% | inhibition at 1 µM (HDAC1 enzyme): 37%

O=C(CC1(O)CCCC1)N[C@@H]1CCCC[C@H]1N1Cc2ccc(-c3noc(C(F)(F)F)n3)cc2C1=O [Example 91, 2-(1-hydroxycyclopentyl)-N-((1R,2R)-2-(1-oxo-6-(5-(trifluoromethyl)-1,2,4-oxadiazol-3-yl)-1,3-dihydro-2H-isoindol-2-yl)cyclohexyl)acetamide]
inhibition at 1 µM (HDAC9 enzyme): 44% | inhibition at 1 µM (HDAC6 enzyme): 99% | inhibition at 1 µM (HDAC1 enzyme): 11%

O=C1CC[C@H](C(=O)N[C@@H]2CCCC[C@H]2N2Cc3ccc(-c4noc(C(F)(F)F)n4)cc3C2=O)N1 [Example 92, 5-oxo-N-((1R,2R)-2-(1-oxo-6-(5-(trifluoromethyl)-1,2,4-oxadiazol-3-yl)-1,3-dihydro-2H-isoindol-2-yl)cyclohexyl)-D-prolinamide]
inhibition at 1 µM (HDAC9 enzyme): 23% | inhibition at 1 µM (HDAC6 enzyme): 96% | inhibition at 1 µM (HDAC1 enzyme): 0%

O=C1C[C@@H](C(=O)N[C@@H]2CCCC[C@H]2N2Cc3ccc(-c4noc(C(F)(F)F)n4)cc3C2=O)N1 [Example 93, (2S)-4-oxo-N-((1R,2R)-2-(1-oxo-6-(5-(trifluoromethyl)-1,2,4-oxadiazol-3-yl)-1,3-dihydro-2H-isoindol-2-yl)cyclohexyl)azetidine-2-carboxamide]
inhibition at 1 µM (HDAC9 enzyme): 42% | inhibition at 1 µM (HDAC6 enzyme): 95% | inhibition at 1 µM (HDAC1 enzyme): 2%

CN1CCC[C@@H]1C(=O)N[C@@H]1CCCC[C@H]1N1Cc2ccc(-c3noc(C(F)(F)F)n3)cc2C1=O [Example 94, 1-methyl-N-((1R,2R)-2-(1-oxo-6-(5-(trifluoromethyl)-1,2,4-oxadiazol-3-yl)-1,3-dihydro-2H-isoindol-2-yl)cyclohexyl)-D-prolinamide]
inhibition at 1 µM (HDAC9 enzyme): 24% | inhibition at 1 µM (HDAC6 enzyme): 99% | inhibition at 1 µM (HDAC1 enzyme): 5%

CC(C)(O)C(=O)N[C@@H]1CCCC[C@H]1N1Cc2ccc(-c3noc(C(F)(F)F)n3)cc2C1=O [Example 95, 2-hydroxy-2-methyl-N-((1R,2R)-2-(1-oxo-6-(5-(trifluoromethyl)-1,2,4-oxadiazol-3-yl)-1,3-dihydro-2H-isoindol-2-yl)cyclohexyl)propanamide]
inhibition at 1 µM (HDAC9 enzyme): 37% | inhibition at 1 µM (HDAC6 enzyme): 100% | inhibition at 1 µM (HDAC1 enzyme): 3%

CC(C)(O)CC(=O)N[C@@H]1CCCC[C@H]1N1Cc2ccc(-c3noc(C(F)(F)F)n3)cc2C1=O [Example 96, 3-hydroxy-3-methyl-N-((1R,2R)-2-(1-oxo-6-(5-(trifluoromethyl)-1,2,4-oxadiazol-3-yl)-1,3-dihydro-2H-isoindol-2-yl)cyclohexyl)butanamide]
inhibition at 1 µM (HDAC9 enzyme): 50% | inhibition at 1 µM (HDAC6 enzyme): 101% | inhibition at 1 µM (HDAC1 enzyme): 10%

O=C(N[C@@H]1CCCC[C@H]1N1Cc2ccc(-c3noc(C(F)(F)F)n3)cc2C1=O)C1CCC1 [Example 97, N-((1R,2R)-2-(1-oxo-6-(5-(trifluoromethyl)-1,2,4-oxadiazol-3-yl)-1,3-dihydro-2H-isoindol-2-yl)cyclohexyl) cyclobutanecarboxamide]
inhibition at 1 µM (HDAC9 enzyme): 59% | inhibition at 1 µM (HDAC6 enzyme): 99% | inhibition at 1 µM (HDAC1 enzyme): 14%

O=C(N[C@@H]1CCCC[C@H]1N1Cc2ccc(-c3noc(C(F)(F)F)n3)cc2C1=O)C1C[C@@H]1F (stereo partly drawn) [Example 98, 2-fluoro-N-((1R,2R)-2-(1-oxo-6-(5-(trifluoromethyl)-1,2,4-oxadiazol-3-yl)-1,3-dihydro-2H-isoindol-2-yl)cyclohexyl) cyclopropanecarboxamide]
inhibition at 1 µM (HDAC9 enzyme): 55% | inhibition at 1 µM (HDAC6 enzyme): 99% | inhibition at 1 µM (HDAC1 enzyme): 4%

CC1(C)C(C(=O)N[C@@H]2CCCC[C@H]2N2Cc3ccc(-c4noc(C(F)(F)F)n4)cc3C2=O)C1(C)C [Example 99, 2,2,3,3-tetramethyl-N-((1R,2R)-2-(1-oxo-6-(5-(trifluoromethyl)-1,2,4-oxadiazol-3-yl)-1,3-dihydro-2H-isoindol-2-yl)cyclohexyl) cyclopropanecarboxamide]
inhibition at 1 µM (HDAC9 enzyme): 51% | inhibition at 1 µM (HDAC6 enzyme): 100% | inhibition at 1 µM (HDAC1 enzyme): 13%

CC(C)(C#N)C(=O)N[C@@H]1CCCC[C@H]1N1Cc2ccc(-c3noc(C(F)(F)F)n3)cc2C1=O [Example 100, 2-cyano-2-methyl-N-((1R,2R)-2-(1-oxo-6-(5-(trifluoromethyl)-1,2,4-oxadiazol-3-yl)-1,3-dihydro-2H-isoindol-2-yl)cyclohexyl)propanamide]
inhibition at 1 µM (HDAC9 enzyme): 73% | inhibition at 1 µM (HDAC6 enzyme): 100% | inhibition at 1 µM (HDAC1 enzyme): 9%

Cn1cnc(C(=O)N[C@@H]2CCCC[C@H]2N2Cc3ccc(-c4noc(C(F)(F)F)n4)cc3C2=O)c1 [Example 101, 1-methyl-N-((1R,2R)-2-(1-oxo-6-(5-(trifluoromethyl)-1,2,4-oxadiazol-3-yl)-1,3-dihydro-2H-isoindol-2-yl)cyclohexyl)-1H-imidazole-4-carboxamide]
inhibition at 1 µM (HDAC9 enzyme): 68% | inhibition at 1 µM (HDAC6 enzyme): 98% | inhibition at 1 µM (HDAC1 enzyme): 12%

CC1CC1C(=O)N[C@@H]1CCCC[C@H]1N1Cc2ccc(-c3noc(C(F)(F)F)n3)cc2C1=O (stereo partly drawn) [Example 102, 2-methyl-N-((1R,2R)-2-(1-oxo-6-(5-(trifluoromethyl)-1,2,4-oxadiazo-3-yl)-1,3-dihydro-2H-isoindol-2-yl)cyclohexyl) cyclopropanecarboxamide]
inhibition at 1 µM (HDAC9 enzyme): 52% | inhibition at 1 µM (HDAC6 enzyme): 99% | inhibition at 1 µM (HDAC1 enzyme): 7%

O=C(N[C@@H]1CCCC[C@H]1N1Cc2ccc(-c3noc(C(F)(F)F)n3)cc2C1=O)c1cocn1 [Example 103, N-((1R,2R)-2-(1-oxo-6-(5-(trifluoromethyl)-1,2,4-oxadiazol-3-yl)-1,3-dihydro-2H-isoindol-2-yl)cyclohexyl)-1,3-oxazole-4-carboxamide]
inhibition at 1 µM (HDAC9 enzyme): 55% | inhibition at 1 µM (HDAC6 enzyme): 102% | inhibition at 1 µM (HDAC1 enzyme): 14%
